Laboratory results as given in patent US11717508B2, “Compounds, compositions, and methods for inhibiting bacterial growth” (priority 2016, dated 2023).
Entries after “also recorded” stand apart in the source; their conditions may differ. Read-outs that look alike come from different tables or passages of the source.

Assays:
DosS [1] = target: T1, DosS (Mycobacterium tuberculosis, UniProt P9WGK3); type: biochemical
DosT = DosT (Mycobacterium tuberculosis, UniProt P9WGK1); experiment: DosT autophosphorylation assay; type: biochemical
Sequence of DosT (P9WGK1 whole entry): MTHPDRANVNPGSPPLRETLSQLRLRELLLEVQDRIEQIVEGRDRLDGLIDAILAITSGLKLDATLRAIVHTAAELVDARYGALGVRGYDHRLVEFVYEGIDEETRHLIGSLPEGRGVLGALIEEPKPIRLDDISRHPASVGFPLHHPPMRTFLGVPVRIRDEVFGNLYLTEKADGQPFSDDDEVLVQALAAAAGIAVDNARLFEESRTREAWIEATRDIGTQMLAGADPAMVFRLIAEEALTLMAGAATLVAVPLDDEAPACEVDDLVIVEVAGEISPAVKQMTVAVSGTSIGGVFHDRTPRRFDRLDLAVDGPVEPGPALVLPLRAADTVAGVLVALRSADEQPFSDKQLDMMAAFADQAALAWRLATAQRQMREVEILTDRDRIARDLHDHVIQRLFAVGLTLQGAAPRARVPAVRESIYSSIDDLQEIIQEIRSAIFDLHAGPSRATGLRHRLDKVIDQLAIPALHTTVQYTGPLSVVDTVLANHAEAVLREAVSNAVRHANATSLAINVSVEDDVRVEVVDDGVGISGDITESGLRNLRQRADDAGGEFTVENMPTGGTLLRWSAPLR

[2] = tested on: CDC1551(hspX′:GFP) reporter; experiment: microbe, parasite or virus in culture; type: cell-based, Mycobacterium tuberculosis; details: for EC50: Mycobacterium tuberculosis, read-out: EC50 of inhibition of CDC1551(hspX′:GFP) reporter (dosR-dependent GFP) fluorescence
Mtb = experiment: microbe, parasite or virus in culture; type: cell-based; details: Mycobacterium tuberculosis, read-out: growth inhibition EC50
[3] = tested on: DosR regulon genes (dosR, hspX and tgs1); experiment: NO and vitamin C sensitivity assays (RT-PCR); type: cell-based, Mycobacterium tuberculosis
DosS [4] = target: T1, DosS; experiment: DosS autophosphorylation assay; type: biochemical
Mtb Erdman = details: ERDMAN, 360 h
[5] = tested on: DosR regulon genes (dosR, hspX and tgs1); experiment: RT-PCR of DosR regulon genes under hypoxia; type: cell-based, Mycobacterium tuberculosis; details: 6 days
DosS [6] = target: T1, DosS; experiment: LC-MS analysis of DosS reaction samples for heme-artemisinin adducts; type: biochemical; details: DosS treated with artemisinin vs DMSO

T1 sequence (P9WGK3 whole entry): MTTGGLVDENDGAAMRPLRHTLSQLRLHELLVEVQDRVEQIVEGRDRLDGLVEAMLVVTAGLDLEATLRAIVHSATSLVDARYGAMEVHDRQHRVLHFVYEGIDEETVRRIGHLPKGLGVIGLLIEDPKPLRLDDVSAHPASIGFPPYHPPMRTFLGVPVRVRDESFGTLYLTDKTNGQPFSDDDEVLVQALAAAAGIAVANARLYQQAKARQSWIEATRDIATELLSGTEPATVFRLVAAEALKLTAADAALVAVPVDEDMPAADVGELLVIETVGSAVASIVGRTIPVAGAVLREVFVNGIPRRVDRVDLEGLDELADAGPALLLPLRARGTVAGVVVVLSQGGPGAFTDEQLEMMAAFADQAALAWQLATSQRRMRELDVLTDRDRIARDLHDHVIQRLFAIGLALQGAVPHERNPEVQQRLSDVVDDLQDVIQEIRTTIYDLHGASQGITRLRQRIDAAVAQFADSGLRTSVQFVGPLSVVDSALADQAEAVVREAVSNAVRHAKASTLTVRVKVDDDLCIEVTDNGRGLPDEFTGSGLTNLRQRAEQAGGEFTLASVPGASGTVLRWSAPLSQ

C[C@@H]1CC(C)(C)C[C@]2(C1)NC(=O)NC2=O (racemic) [HC102A, 7,7,9-trimethyl-1,3-diazaspiro[4.5]decane-2,4-dione]
effect on redox status of DosS heme (DosS [1]; UV-visible spectra vs DMSO control): no impact on the redox status; also recorded: no effect in modulating redox status of DosS
impact on DosT autophosphorylation (DosT; dose response, 1 hour): limited impact
activity of compound regenerated by organic synthesis [2]: confirmed to have the activity of the commercially sourced compounds
EC50 ([2]; 6 days of treatment): 12.4 µM
EC50 (Mtb; 6 days, optical density, unit given as M): > 80 µM
repression of tgs1 transcript following treatment with DETA-NONOate ([3]; 80 μM pretreatment 24 h, 50 μM DETA-NONOate 2 h): 3 fold
repression of tgs1 transcript in vitamin C treated cells ([3]; 80 μM pretreatment 24 h, 2 mM vitamin C 2 h): 2 fold
inhibition of induction of DosR regulon (dosR, hspX, tgs1) by NO and vitamin C ([3]; pretreatment 24 h, induction 2 h): strongly inhibited the induction; also recorded: inhibited the induction of DosR regulon
IC50 (DosS [4]; 1 hour incubation, read-out: IC50 of inhibition of DosS autophosphorylation): 1.9 µM
maximal inhibition of DosS autophosphorylation (DosS [4]; dose response): ~60%

O=C(Nc1cccc(O)c1)c1cccc(NC(=O)c2cccs2)c1 [HC103A, N-[3-[(3 hydroxyphenyl)carbamoyl]phenyl]thiophene-2-carboxamide]
effect on redox status of DosS heme (DosS [1]): no impact on the redox status; also recorded: no effect in modulating redox status of DosS
IC50 (DosT): ~5 µM
activity of compound regenerated by organic synthesis [2]: confirmed to have the activity of the commercially sourced compounds
EC50 ([2]; […]): 2.7 µM
EC50 (Mtb; […]): > 80 µM
inhibition of induction of DosR regulon (dosR, hspX, tgs1) by NO and vitamin C [3]: strongly inhibited the induction; also recorded: inhibited the induction of DosR regulon
repression of tgs1 transcript following treatment with DETA-NONOate [3]: 50 fold
repression of tgs1 transcript in vitamin C treated cells [3]: 3 fold
reduction of Mtb viability when treated with 5 μM INH (Mtb Erdman): ~50%
IC50 (DosS [4]): 0.5 µM
maximal inhibition of DosS autophosphorylation (DosS [4]): ~90%

C[C@@H]1CC[C@H]2[C@@H](C)C(=O)O[C@@H]3O[C@]4(C)CC[C@@H]1[C@]32OO4 [HC101A, artemisinin, reference compound]
inhibition of dosRS (real-time PCR) [5]: 37 fold
inhibition of hspX (real-time PCR) [5]: 51 fold
inhibition of tgs1 (real-time PCR) [5]: 166 fold
formation of heme-artemisinin adducts (LC-MS) (DosS [6]): alkylates the sensor kinase heme to form heme-artemisinin adducts
